# Measurements taken from patent US6737383B1, “Herbicidal oxadiazolidines” (priority 1999, dated 2004).
# Assays:
# cocklebur = assay: Test B pre/postemergence cocklebur; type: in vivo, Xanthium strumarium
# Method in brief: (§1)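 Response is a visual 0-to-10 score relative to untreated plants, where 0 means no effect and 10 means complete control, taken twelve to sixteen days after application. Treatments went onto soil at planting and onto foliage of 1- to 4-leaf plants, using a surfactant-containing non-phytotoxic solvent.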
# rape = assay: Test B pre/postemergence rape; type: in vivo, Brassica napus
# Method in brief: as §1
# wheat = assay: Test B pre/postemergence wheat; type: in vivo, Triticum aestivum
# Method in brief: as §1
# pigweed = assay: Test B pre/postemergence pigweed; type: in vivo, Amaranthus retroflexus
# Method in brief: as §1
# smallflower flatsedge = assay: Test B flood test smallflower flatsedge; type: in vivo, Cyperus difformis
# Method in brief: (§2)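 Plants were grown to the 2-leaf stage before treatment with test chemical, then held in a greenhouse for twelve to sixteen days. Injury was visually rated against untreated controls on a 0–10 scale, where 0 is no effect and 10 is complete control.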
# morningglory = assay: Test B pre/postemergence morningglory; type: in vivo, Ipomoea hederacea
# Method in brief: as §1
# purple nutsedge = assay: Test B pre/postemergence purple nutsedge; type: in vivo, Cyperus rotundus
# Method in brief: as §1
# crabgrass = assay: Test B pre/postemergence crabgrass; type: in vivo, Digitaria sanguinalis
# Method in brief: as §1
# rice = assay: Test B flood test rice; type: in vivo, Oryza sativa
# Method in brief: as §2
# sugar beet = assay: Test B pre/postemergence sugar beet; type: in vivo, Beta vulgaris
# Method in brief: as §1
# blackgrass = assay: Test B pre/postemergence blackgrass; type: in vivo, Alopecurus myosuroides
# Method in brief: as §1
# velvetleaf = assay: Test B pre/postemergence velvetleaf; type: in vivo, Abutilon theophrasti
# Method in brief: as §1
# corn = assay: Test B pre/postemergence corn; type: in vivo, Zea mays
# Method in brief: as §1
# soybean = assay: Test B pre/postemergence soybean; type: in vivo, Glycine max
# Method in brief: as §1
# giant foxtail = assay: Test B pre/postemergence giant foxtail; type: in vivo, Setaria faberii
# Method in brief: as §1
# duck salad = assay: Test B flood test duck salad; type: in vivo, Heteranthera limosa
# Method in brief: as §2
# [1] = Preemergence, Rate 62 g/ha, scale of 0 to 10 where 0 is no effect and 10 is complete control
# [2] = Preemergence, Rate 250 g/ha, scale of 0 to 10 where 0 is no effect and 10 is complete control
# [3] = Preemergence, Rate 500 g/ha, scale of 0 to 10 where 0 is no effect and 10 is complete control
# [4] = Rate 62 g/ha, Postemergence, scale of 0 to 10 where 0 is no effect and 10 is complete control
# [5] = Rate 125 g/ha, Postemergence, scale 0 to 10
# [6] = Rate 125 g/ha, Preemergence, scale of 0 to 10 where 0 is no effect and 10 is complete control
# [7] = Rate 500 g/ha, Postemergence, scale 0 to 10
# [8] = Rate 62 g/ha, headed Pre-emergence (flood test species), scale 0 to 10 (0 no effect, 10 complete control)
# [9] = Rate 125 g/ha, Pre-emergence, flood test species, scale 0 to 10 where 0 is no effect and 10 is complete control
# [10] = Rate 250 g/ha, Pre-emergence, flood-test species, scale 0 to 10, 0 is no effect, 10 is complete control
# [11] = Rate 500 g/ha, Pre-emergence, flood test species, scale 0 to 10 (0 no effect, 10 complete control)
structure (smiles),measurement,setting,value
COC(=O)Cn1c(=O)on(C(=O)N(c2ccc(F)cc2)C(C)C)c1=O [Compound 215],Cocklebur plant response rating,cocklebur; [1],0
same,Cocklebur plant response rating,cocklebur; [2],0
same,"Plant response rating, Cocklebur",cocklebur; [3],0
same,Cocklebur plant response rating,cocklebur; [4],0
same,Cocklebur plant response rating,cocklebur; [5],0
same,Cocklebur plant response rating,cocklebur; [6],0
same,"Plant response rating (0 to 10; 0 is no effect, 10 is complete control), Cocklebur","cocklebur; Rate 250 g/ha, Postemergence",0
same,Cocklebur plant response rating,cocklebur; [7],0
same,Rape plant response rating,rape; [1],0
same,Rape plant response rating,rape; [2],0
same,"Plant response rating, Rape",rape; [3],2
same,Rape plant response rating,rape; [4],0
same,Rape plant response rating,rape; [5],0
same,Rape plant response rating,rape; [6],0
same,"Plant response rating (0 to 10; 0 is no effect, 10 is complete control), Rape","rape; Rate 250 g/ha, Postemergence",0
same,Rape plant response rating,rape; [7],0
same,Wheat plant response rating,wheat; [1],0
same,Wheat plant response rating,wheat; [2],0
same,"Plant response rating, Wheat",wheat; [3],0
same,Wheat plant response rating,wheat; [4],3
same,Wheat plant response rating,wheat; [5],3
same,Wheat plant response rating,wheat; [6],0
same,"Plant response rating (0 to 10; 0 is no effect, 10 is complete control), Wheat","wheat; Rate 250 g/ha, Postemergence",6
same,Redroot pigweed plant response rating,pigweed; [1],4
same,Redroot pigweed plant response rating,pigweed; [2],5
same,"Plant response rating, Redroot pigweed",pigweed; [3],6
same,Redroot pigweed plant response rating,pigweed; [4],0
same,Redroot pigweed plant response rating,pigweed; [5],0
same,Redroot pigweed plant response rating,pigweed; [6],4
same,"Plant response rating (0 to 10; 0 is no effect, 10 is complete control), Redroot pigweed","pigweed; Rate 250 g/ha, Postemergence",6
same,Redroot pigweed plant response rating,pigweed; [7],6
same,S. Flatsedge plant response rating,smallflower flatsedge; [8],0
same,S. Flatsedge plant response rating,smallflower flatsedge; [9],0
same,S. Flatsedge plant response rating,smallflower flatsedge; [10],0
same,S. Flatsedge plant response rating,smallflower flatsedge; [11],0
same,Morningglory plant response rating,morningglory; [1],0
same,Morningglory plant response rating,morningglory; [2],0
same,"Plant response rating, Morningglory",morningglory; [3],0
same,Morningglory plant response rating,morningglory; [4],0
same,Morningglory plant response rating,morningglory; [5],2
same,Morningglory plant response rating,morningglory; [6],0
same,"Plant response rating (0 to 10; 0 is no effect, 10 is complete control), Morningglory","morningglory; Rate 250 g/ha, Postemergence",3
same,Morningglory plant response rating,morningglory; [7],3
same,Nutsedge plant response rating,purple nutsedge; [1],0
same,Nutsedge plant response rating,purple nutsedge; [2],0
same,"Plant response rating, Nutsedge",purple nutsedge; [3],0
same,Nutsedge plant response rating,purple nutsedge; [4],0
same,Nutsedge plant response rating,purple nutsedge; [5],0
same,Nutsedge plant response rating,purple nutsedge; [6],0
same,"Plant response rating (0 to 10; 0 is no effect, 10 is complete control), Nutsedge","purple nutsedge; Rate 250 g/ha, Postemergence",0
same,Nutsedge plant response rating,purple nutsedge; [7],0
same,Crabgrass plant response rating,crabgrass; [1],3
same,Crabgrass plant response rating,crabgrass; [2],4
same,"Plant response rating, Crabgrass",crabgrass; [3],4
same,Crabgrass plant response rating,crabgrass; [4],0
same,Crabgrass plant response rating,crabgrass; [5],0
same,Crabgrass plant response rating,crabgrass; [6],4
same,"Plant response rating (0 to 10; 0 is no effect, 10 is complete control), Crabgrass","crabgrass; Rate 250 g/ha, Postemergence",2
same,Crabgrass plant response rating,crabgrass; [7],2
same,Rice plant response rating,rice; [8],0
same,Rice plant response rating,rice; [9],0
same,Rice plant response rating,rice; [10],0
same,Rice plant response rating,rice; [11],0
same,Sugarbeets plant response rating,sugar beet; [1],0
same,Sugarbeets plant response rating,sugar beet; [2],2
same,"Plant response rating, Sugarbeets",sugar beet; [3],7
same,Sugarbeets plant response rating,sugar beet; [4],0
same,Sugarbeets plant response rating,sugar beet; [5],0
same,Sugarbeets plant response rating,sugar beet; [6],2
same,"Plant response rating (0 to 10; 0 is no effect, 10 is complete control), Sugarbeets","sugar beet; Rate 250 g/ha, Postemergence",0
same,Sugarbeets plant response rating,sugar beet; [7],0
same,Blackgrass plant response rating,blackgrass; [1],4
same,"Plant response rating, Blackgrass",blackgrass; [3],6
same,Blackgrass plant response rating,blackgrass; [4],0
same,Blackgrass plant response rating,blackgrass; [5],0
same,Blackgrass plant response rating,blackgrass; [6],6
same,"Plant response rating (0 to 10; 0 is no effect, 10 is complete control), Blackgrass","blackgrass; Rate 250 g/ha, Postemergence",4
same,Blackgrass plant response rating,blackgrass; [7],5
same,Velvetleaf plant response rating,velvetleaf; [1],0
same,Velvetleaf plant response rating,velvetleaf; [2],0
same,"Plant response rating, Velvetleaf",velvetleaf; [3],0
same,Velvetleaf plant response rating,velvetleaf; [4],0
same,Velvetleaf plant response rating,velvetleaf; [5],0
same,Velvetleaf plant response rating,velvetleaf; [6],0
same,"Plant response rating (0 to 10; 0 is no effect, 10 is complete control), Velvetleaf","velvetleaf; Rate 250 g/ha, Postemergence",0
same,Corn plant response rating,corn; [1],0
same,Corn plant response rating,corn; [2],0
same,"Plant response rating, Corn",corn; [3],2
same,Corn plant response rating,corn; [4],0
same,Corn plant response rating,corn; [5],0
same,Corn plant response rating,corn; [6],0
same,"Plant response rating (0 to 10; 0 is no effect, 10 is complete control), Corn","corn; Rate 250 g/ha, Postemergence",0
same,Corn plant response rating,corn; [7],0
same,Soybean plant response rating,soybean; [1],0
same,Soybean plant response rating,soybean; [2],0
same,"Plant response rating, Soybean",soybean; [3],0
same,Soybean plant response rating,soybean; [4],0
same,Soybean plant response rating,soybean; [5],1
same,Soybean plant response rating,soybean; [6],0
same,"Plant response rating (0 to 10; 0 is no effect, 10 is complete control), Soybean","soybean; Rate 250 g/ha, Postemergence",1
same,Soybean plant response rating,soybean; [7],1
same,Giant foxtail plant response rating,giant foxtail; [1],3
same,Giant foxtail plant response rating,giant foxtail; [2],3
same,"Plant response rating, Giant foxtail",giant foxtail; [3],5
same,Giant foxtail plant response rating,giant foxtail; [4],0
same,Giant foxtail plant response rating,giant foxtail; [5],0
same,Giant foxtail plant response rating,giant foxtail; [6],3
same,"Plant response rating (0 to 10; 0 is no effect, 10 is complete control), Giant foxtail","giant foxtail; Rate 250 g/ha, Postemergence",3
same,Giant foxtail plant response rating,giant foxtail; [7],5
same,Ducksalad plant response rating,duck salad; [8],0
same,Ducksalad plant response rating,duck salad; [9],0
same,Ducksalad plant response rating,duck salad; [10],0
same,Ducksalad plant response rating,duck salad; [11],0
